What was measured:
[1] = target: T1, Histidine tagged HIF-2α protein containing PAS-B domain (240-350) (Homo sapiens, UniProt Q99814); assay: HIF-2α Scintillation Proximity Assay (SPA) binding assay; conditions: 50 nM HIF-2α protein, 25 nM 3H-tracer
T1 construct: HIF-2α protein containing PAS-B domain (240-350); made in house
How it was run: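 His-tagged HIF-2α PAS-B (240-350), 50 nM final, preincubated with compound 1 h at room temperature in 25 mM Tris-HCl pH 7.4, 150 mM NaCl, 0.15% BSA, 0.001% Tween 20, 2% DMSO. Copper-chelate SPA beads (3 ug/well, 45 min) and 25 nM tritiated N-(3-chlorophenyl)-4-nitro-2,1,3-benzoxadiazol-5-amine tracer followed; IC50 from four-parameter fits.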

HIF-2α = target: T2, HIF-2α (Homo sapiens, UniProt Q99814); assay: HIF-2α luciferase reporter assay in HIF-Luc-786-O cells; assay type: cell-based
T2 construct: host or cells: 786-O cells stably transduced with Cignal Lenti HIF Luc Reporter (only the reporter was introduced, not HIF-2α)
How it was run: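 Luminescence (ONE-Glo) read after 20 h compound incubation, top concentration 50 uM, 1% DMSO, 20,000 HIF-Luc-786-O cells per well. Activity scaled between DMSO maximum and no-cell baseline; four-parameter dose-response fits yielded IC50.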

T2 sequence (Q99814 whole entry): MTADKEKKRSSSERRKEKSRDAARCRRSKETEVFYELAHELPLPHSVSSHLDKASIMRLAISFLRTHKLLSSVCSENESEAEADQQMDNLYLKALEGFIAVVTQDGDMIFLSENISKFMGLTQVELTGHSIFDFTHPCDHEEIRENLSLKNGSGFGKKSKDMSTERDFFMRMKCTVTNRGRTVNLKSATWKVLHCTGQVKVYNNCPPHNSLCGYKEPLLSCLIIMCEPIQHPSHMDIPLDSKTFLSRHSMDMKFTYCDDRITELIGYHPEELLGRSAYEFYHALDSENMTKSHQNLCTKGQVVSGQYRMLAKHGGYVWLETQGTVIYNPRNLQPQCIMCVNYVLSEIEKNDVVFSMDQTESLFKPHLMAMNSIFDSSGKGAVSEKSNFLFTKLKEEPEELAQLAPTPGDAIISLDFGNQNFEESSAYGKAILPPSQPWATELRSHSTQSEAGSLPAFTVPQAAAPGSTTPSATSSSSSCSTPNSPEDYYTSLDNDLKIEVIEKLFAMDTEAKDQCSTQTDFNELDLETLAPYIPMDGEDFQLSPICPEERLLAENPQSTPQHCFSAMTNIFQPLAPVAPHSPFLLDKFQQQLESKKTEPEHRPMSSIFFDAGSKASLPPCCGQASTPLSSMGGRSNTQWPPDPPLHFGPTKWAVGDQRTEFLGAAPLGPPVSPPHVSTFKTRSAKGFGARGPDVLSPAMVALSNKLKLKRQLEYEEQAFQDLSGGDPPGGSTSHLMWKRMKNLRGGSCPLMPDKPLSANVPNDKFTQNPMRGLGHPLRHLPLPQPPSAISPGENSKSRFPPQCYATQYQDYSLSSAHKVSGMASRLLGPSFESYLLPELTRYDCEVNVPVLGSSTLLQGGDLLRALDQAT
T1 sequence (Q99814 240-350): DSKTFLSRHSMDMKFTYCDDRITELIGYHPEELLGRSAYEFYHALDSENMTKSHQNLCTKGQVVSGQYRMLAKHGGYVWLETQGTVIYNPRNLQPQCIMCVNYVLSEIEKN

Row | Compound | IC50 ([1]; Table 1) [nM] | IC50 (HIF-2α; Table 1, 20 hours incubation) [nM] | also measured
1 | N#Cc1cc(F)cc2c1[C@@H](c1ccc(Cl)c3c1CC(F)(F)[C@H]3O)CCC2 [Example 117] | 100 to 1000 | 100 to 1000 | –
2 | CC1CCN(c2ccc(S(=O)(=O)C(F)(F)F)c3c2C[C@@H](F)[C@H]3O)c2c(F)cc(F)cc21 (stereo partly shown) [Example 30] | 100 to 1000 | 100 to 1000 | –
3 | N#Cc1cc(F)cc2c1N(c1ccc(C(F)(F)F)c(F)c1C#N)CC[C@@H]2F [Example 121, (4S)-1-[2-Cyano-3-fluoro-4-(trifluoromethyl)phenyl]-4,6-difluoro-3,4-dihydro-2H-quinoline-8-carbonitrile] | – | – | IC50 ([1]; Table 2): < 100 nM; IC50 (HIF-2α; Table 2, 20 hours incubation): < 100 nM
4 | Cn1ncc(C#N)c1-c1ccc([C@H]2CC[C@H](F)c3cc(F)cc(C#N)c32)c2c1[C@H](O)C(F)(F)C2 [Example 145, 5-[(3S)-7-[(1R,4S)-8-cyano-4,6-difluoro-1,2,3,4-tetrahydronaphthalen-1-yl]-2,2-difluoro-3-hydroxy-1,3-dihydroinden-4-yl]-1-methylpyrazole-4-carbonitrile] | – | – | IC50 ([1]; Table 3): < 100 nM; IC50 (HIF-2α; Table 3, 20 hours incubation): < 100 nM
5 | COc1cc(F)cc2c1N(c1ccc(S(=O)(=O)C(F)(F)F)c(C#N)c1Cl)CCC2 [Example 18, 2-chloro-3-(6-fluoro-8-methoxy-3,4-dihydroquinolin-1(211)-yl)-6-((trifluoromethyl)sulfonyl)benzonitrile] | > 1000 | > 1000 | –
6 | N#Cc1cc(F)cc2c1N(c1ccc(C(F)(F)F)c(F)c1C#N)C[C@H](F)[C@@H]2F [Example 130, (3S,4R)-1-[2-Cyano-3-fluoro-4-(trifluoromethyl)phenyl]-3,4,6-trifluoro-1,2,3,4-tetrahydroquinoline-8-carbonitrile] | – | – | IC50 ([1]; Table 2): < 100 nM; IC50 (HIF-2α; Table 2, 20 hours incubation): < 100 nM
7 | Cn1cncc1-c1ccc([C@H]2CC[C@H](F)c3cc(F)cc(C#N)c32)c2c1[C@H](O)C(F)(F)C2 [Example 240, (5S,8R)-8-[(1S)-2,2-difluoro-1-hydroxy-7-(3-methylimidazol-4-yl)-1,3-dihydroinden-4-yl]-3,5-difluoro-5,6,7,8-tetrahydronaphthalene-1-carbonitrile] | – | – | IC50 ([1]; Table 3): < 100 nM; IC50 (HIF-2α; Table 3, 20 hours incubation): < 100 nM
8 | N#Cc1c(Cl)ccc(N2CCCc3cc(F)cc(F)c32)c1C(F)F [Example 71] | > 1000 | > 1000 | –
9 | CS(=O)(=O)c1ccc(C2CCCc3cc(F)cc(C#N)c32)c2c1[C@H](O)[C@H](F)C2 (stereo in doubt) [Example 7, (8S)-3-fluoro-8-((1S,2R)-2-fluoro-1-hydroxy-7-(methylsulfonyl)-2,3-dihydro-1H-inden-4-yl)-5,6,7,8-tetrahydronaphthalene-1-carbonitrile] | < 100 | < 100 | –
10 | N#Cc1c(S(=O)(=O)C(F)(F)F)ccc(N2CCCc3cc(F)cc(Cl)c32)c1Cl [Example 12, 2-chloro-3-(8-chloro-6-fluoro-1,2,3,4-tetrahydroquinolin-1-yl)-6-trifluoromethanesulfonylbenzonitrile] | 100 to 1000 | > 1000 | –
11 | N#Cc1cc(F)cc2c1[C@@H](c1ccc(S(=O)(=O)C(F)F)c3c1C[C@@H](F)[C@H]3O)CCC2 [Example 115] | < 100 | < 100 | –
12 | Cc1c([C@H]2CC[C@H](F)c3cc(F)cc(C#N)c32)cnc(C(C)(F)F)c1F [Example 139, (5S,8S)-8-[6-(1,1-difluoroethyl)-5-fluoro-4-methylpyridin-3-yl]-3,5-difluoro-5,6,7,8-tetrahydronaphthalene-1-carbonitrile] | – | – | IC50 ([1]; Table 2): < 100 nM; IC50 (HIF-2α; Table 2, 20 hours incubation): < 100 nM
13 | O=S(=O)(c1ccc(C2CCCc3cc(F)cc(F)c32)c2ccncc12)C(F)(F)F (stereo not shown) [Example 25, 5-(6,8-Difluoro-1,2,3,4-tetrahydronaphth-1-yl)-8-(trifluoromethylsulfonyl)isoquinoline] | > 1000 | > 1000 | –
14 | O=S(=O)(c1ccc(C2CCCc3cc(F)cc(F)c32)c2c1[C@H](O)[C@H](F)C2)C(F)(F)F (stereo partly shown) [Example 89] | < 100 | < 100 | –
15 | CS(=O)(=O)c1ccc([C@H]2CCCc3cc(F)cc(C#N)c32)c2c1[C@H](O)[C@H](F)CC2 [Example 98] | 100 to 1000 | 100 to 1000 | –
16 | Cc1c(-c2ccc([C@H]3CC[C@H](F)c4cc(F)cc(C#N)c43)c3c2[C@H](O)C(F)(F)C3)cnn1C [Example 166, (5S,8R)-8-[(1S)-7-(1,5-dimethyl-1H-pyrazol-4-yl)-2,2-difluoro-1-hydroxy-2,3-dihydro-1H-inden-4-yl]-3,5-difluoro-5,6,7,8-tetrahydronaphthalene-1-carbonitrile] | – | – | IC50 ([1]; Table 3): < 100 nM; IC50 (HIF-2α; Table 3, 20 hours incubation): < 100 nM
17 | N#Cc1c(S(N)(=O)=O)ccc(N2CCCc3cc(F)cc(F)c32)c1Cl [Example 75] | > 1000 | > 1000 | –
18 | CC[C@H]1CCN(c2ccc(S(=O)(=O)C(F)(F)F)c3c2C[C@@H](F)[C@H]3O)c2c(F)cc(F)cc21 [Example 17, (1S,2R)-4-[(S)-4-ethyl-6,8-difluoro-1,2,3,4-tetrahydroquinol-1-yl]-2-fluoro-7-(trifluoromethylsulfonyl)-1-indanol] | 100 to 1000 | 100 to 1000 | –
19 | CS(=O)(=O)c1ccc(C2CCCc3cc(F)ccc32)c2c1[C@H](O)C(F)(F)C2 (stereo partly shown) [Example 9] | 100 to 1000 | 100 to 1000 | –
20 | O=S(=O)(c1ccc(N2CCCc3cc(F)cc(F)c32)cc1CO)C(F)(F)F [Example 76] | > 1000 | > 1000 | –
21 | O=[N+]([O-])c1c(N2CCCc3cc(F)cc(F)c32)ccc2nonc12 [Example 34] | > 1000 | 100 to 1000 | –
22 | CS(=O)(=O)c1ccc([C@@H]2CCCc3cnccc32)c2c1[C@H](O)C(F)(F)C2 [Example 106] | > 1000 | > 1000 | –
23 | CS(=O)(=O)c1ccc([C@H]2NCCc3cc(F)cc(F)c32)c2c1[C@H](O)C(F)(F)C2 [Example 111] | > 1000 | > 1000 | –
24 | O=[N+]([O-])c1cc(C(F)(F)F)ccc1N1CCCc2cc(F)cc(F)c21 [Example 24, 6,8-difluoro-1-[2-nitro-4-(trifluoromethyl)phenyl]-1,2,3,4-tetrahydroquinoline] | > 1000 | > 1000 | –
25 | CC1(O)CCN(c2ccc(C(F)(F)F)c(F)c2C#N)c2c(C#N)cc(F)cc21 (stereo not shown) [Example 120] | 100 to 1000 | 100 to 1000 | –
26 | N#Cc1cc(F)cc2c1C(c1ccc(C#N)c3c1CC(F)(F)[C@H]3O)CCC2 (mixture of isomers) [Example 141, 8-[(1S)-7-cyano-2,2-difluoro-1-hydroxy-1,3-dihydroinden-4-yl]-3-fluoro-5,6,7,8-tetrahydronaphthalene-1-carbonitrile] | – | – | IC50 ([1]; Table 2): < 100 nM; IC50 (HIF-2α; Table 2, 20 hours incubation): < 100 nM
27 | CS(=O)(=O)c1ccc([C@H]2CC[C@H](F)c3cc(F)cc(C#N)c32)c2c1[C@H](O)[C@H](F)C2 [Example 134, (5S,8R)-3,5-Difluoro-8-[(1S,2R)-2-fluoro-1-hydroxy-7-methylsulfonyl-2,3-dihydro-1H-inden-4-yl]-5,6,7,8-tetrahydronaphthalene-1-carbonitrile] | – | – | IC50 ([1]; Table 2): < 100 nM; IC50 (HIF-2α; Table 2, 20 hours incubation): < 100 nM
28 | CS(=O)(=O)c1ccc(N2CCCc3cc(F)cc(C#N)c32)c2c1[C@H](O)[C@H](F)C2 [Example 41] | 100 to 1000 | > 1000 | –
29 | N#Cc1cc(F)cc2c1[C@H](c1ccc(S(=O)(=O)C(F)(F)F)c3c1CC[C@H]3O)CCC2 [Example 100] | 100 to 1000 | 100 to 1000 | –

— patent US11787762B2, “Tetralin and tetrahydroquinoline compounds as inhibitors of HIF-2alpha” (ARCUS BIOSCIENCES, INC., priority 2020, dated 2023)
